From US20100189648A1, “INHIBITORS FOR DISRUPTING THE INTERACTION OF UBIQUITINATION RELATED ENZYMES AND USES THEREOF” (priority 2006, published 2010)
In brackets after ≈: the same amount, converted by molar mass. Where two headings read alike, the source gives them in different places.

Key:
Assay type in all cases: cell-based, human
[1] = test system: Hela cells; test: MTT survival assay, cervical cancer line (Hela cells); conditions: for IC50: Homo sapiens
Method: (§1) The effect of the above identified compounds on anti-tumor activity in human carcinoma cells was determined by the MTT survival assay. The MTT assay is a commonly used method in evaluation of cell survival, based on the ability of viable cells to convert MTT (MTT, Sigma, Cat No. 044K5307), a soluble tetrazolium salt [3-(4,5-dimethylthuazole-2-yl)-2,5 diphenyl tetrazolium bromide], into an insoluble formazan precipitate, which is quantitated by spectrophotometry following solubilization in dimethyl sulfoxide (DMSO).
(§2) In brief, different carcinoma cells were treated with negative control, various test articles at different concentration, and positive control (DDP), in 96-well tissue culture dishes. Each test article at different concentration is repeated 3 times.
(§3) Different carcinoma cells were diluted with 10% FBS and RPM1640 or MEM media to a concentration of 3-5×10^4 per ml suspension. 100 microliter of cells were incubated in each well in 96-well tissue culture dishes at 37 C. The cells were incubated at 37 C on the first day. On the second day, media supernatant was removed and replaced with media and different concentration of test articles (100 microliter in each well). Three Negative control wells and three positive control (DDP) wells were also included. The 96-well plate were incubated at 37 C for another 68 hours. After 68 hours, supernatant of each well was removed. 100 microliter of 1 mg/ml MTT diluted in PBS was injected into each well. The cells were incubated at 37 C for another 4 hours. The cells were then solubilized in 150 microliter DMSO, mixed for 10 minutes and absorbance readings were taken using Microplate reader Bio-Rad Model 550 at 570 nm. IR (cell growth inhibition rate) % was calculated as (OD570 of negative control-OD570 with test article)/OD570 of negative control. IC50 (cell 50% inhibition concentration) at 95% confidence level was calculated with Bliss method.

[2] = test system: MCF-7; test: MTT survival assay, breast cancer cell line (MCF-7); conditions: for IC50: Homo sapiens
Method: as §1, §2, §3

[3] = test system: A459; test: MTT survival assay, lung cancer cell line (A459); conditions: A459 Experiment #2; for IC50: Homo sapiens
Method: as §1, §2, §3

[4] = test system: SKOV3; test: MTT survival assay, ovarian cancer cell line (SKOV3); conditions: SKOV3 (second table)
Method: as §1, §2, §3

[5] = test system: SMMC-7721; test: MTT survival assay, liver cancer cell line (SMMC-7721); conditions: SMMC-7721 Experiment #2; for IC50: Homo sapiens
Method: as §1, §2, §3

[6] = test system: U251; test: MTT survival assay, glioma cell line (brain tumor U251); conditions: U251 (second table)
Method: as §1, §2, §3

[7] = 95% confidence limits of IC50, read-out: IC50 (95% confidence level), interval
[8] = Bliss method, unit not printed (concentrations in μg/ml), read-out: IC50 (95% confidence level)

Cc1ccc(S(=O)(=O)NCC(=O)NCC(c2ccccc2)c2c[nH]c3ccccc23)cc1 (centres unmarked) [Mol 640]
IR (%) ([1]; 0.41 μg/ml): 12.3%
OD(A570 nm) ([1]; 0.41 μg/ml): 0.651 ± 0.044
OD(A570 nm) ([1]; 1.23 μg/ml): 0.826 ± 0.101
OD(A570 nm) ([1]; 3.70 μg/ml): 0.819 ± 0.085
IR (%) ([1]; 11.11 μg/ml): 12.2%
OD(A570 nm) ([1]; 11.11 μg/ml): 0.652 ± 0.057
IR (%) ([1]; 33.33 μg/ml): 76.8%
OD(A570 nm) ([1]; 33.33 μg/ml): 0.172 ± 0.010
IR (%) ([1]; 100 μg/ml): 89.5%
OD(A570 nm) ([1]; 100 μg/ml): 0.078 ± 0.023
IC50 [1, 7]: 21.9 to 29.1 µg/mL (≈ 49 to 65.1 µM)
IC50 [1, 8]: 25.3 µg/mL (≈ 56.4 µM)
IR (%) ([2]; 3.125 μg/ml): 10.5%
OD(A570 nm) ([2]; 3.125 μg/ml): 0.807 ± 0.016
IR (%) ([2]; 6.25 μg/ml): 21.5%
OD(A570 nm) ([2]; 6.25 μg/ml): 0.708 ± 0.058
IR (%) ([2]; 12.5 μg/ml): 28.1%
OD(A570 nm) ([2]; 12.5 μg/ml): 0.649 ± 0.036
IR (%) ([2]; 25 μg/ml): 89.6%
OD(A570 nm) ([2]; 25 μg/ml): 0.094 ± 0.012
IR (%) ([2]; 50 μg/ml): 89.1%
OD(A570 nm) ([2]; 50 μg/ml): 0.098 ± 0.012
IR (%) ([2]; 100 μg/ml): 92.3%
OD(A570 nm) ([2]; 100 μg/ml): 0.069 ± 0.007
IC50 ([2]; MCF7, 95% confidence limits of IC50, read-out: IC50 (95% confidence level), interval): 12.3 to 16.1 µg/mL (≈ 27.6 to 36 µM)
IC50 ([2]; MCF7, Bliss method, unit not printed (concentrations in μg/ml), read-out: IC50 (95% confidence level)): 14.1 µg/mL (≈ 31.5 µM)
IR (%) ([3]; 3.125 μg/ml): −22.6%
OD(A570 nm) ([3]; 3.125 μg/ml): 0.781 ± 0.040
IR (%) ([3]; 6.25 μg/ml): −12.5%
OD(A570 nm) ([3]; 6.25 μg/ml): 0.717 ± 0.020
IR (%) ([3]; 12.5 μg/ml): 6.9%
OD(A570 nm) ([3]; 12.5 μg/ml): 0.593 ± 0.034
IR (%) ([3]; 25 μg/ml): 63.6%
OD(A570 nm) ([3]; 25 μg/ml): 0.232 ± 0.006
IR (%) ([3]; 50 μg/ml): 87.2%
OD(A570 nm) ([3]; 50 μg/ml): 0.081 ± 0.010
IR (%) ([3]; 100 μg/ml): 87.1%
OD(A570 nm) ([3]; 100 μg/ml): 0.082 ± 0.014
IC50 [3, 7]: 25.5 to 26.1 µg/mL (≈ 57 to 58.4 µM)
IC50 [3, 8]: 25.8 µg/mL (≈ 57.7 µM)
IC50 ([4]; Homo sapiens, SK-OV-3, Bliss method, unit not printed (concentrations in μg/ml), read-out: IC50 (95% confidence level)): 26.9 µg/mL (≈ 60 µM)
IR (%) ([4]; 3.125 μg/ml): 0%
OD(A570 nm) ([4]; 3.125 μg/ml): 0.716 ± 0.048
IR (%) ([4]; 6.25 μg/ml): 10.3%
OD(A570 nm) ([4]; 6.25 μg/ml): 0.628 ± 0.025
IR (%) ([4]; 12.5 μg/ml): 9.7%
OD(A570 nm) ([4]; 12.5 μg/ml): 0.632 ± 0.020
IR (%) ([4]; 25 μg/ml): 43.8%
OD(A570 nm) ([4]; 25 μg/ml): 0.394 ± 0.037
IR (%) ([4]; 50 μg/ml): 88.3%
OD(A570 nm) ([4]; 50 μg/ml): 0.082 ± 0.008
IR (%) ([4]; 100 μg/ml): 88.7%
OD(A570 nm) ([4]; 100 μg/ml): 0.079 ± 0.010
IC50 [5, 7]: 7.68 to 8.36 µg/mL (≈ 17.2 to 18.7 µM)
IC50 [5, 8]: 8.02 µg/mL (≈ 17.9 µM)
IR (%) ([5]; 3.125 μg/ml): 53.4%
OD(A570 nm) ([5]; 3.125 μg/ml): 0.215 ± 0.008
IR (%) ([5]; 6.25 μg/ml): 39.8%
OD(A570 nm) ([5]; 6.25 μg/ml): 0.278 ± 0.013
IR (%) ([5]; 12.5 μg/ml): 41.9%
OD(A570 nm) ([5]; 12.5 μg/ml): 0.268 ± 0.013
IR (%) ([5]; 25 μg/ml): 56.6%
OD(A570 nm) ([5]; 25 μg/ml): 0.200 ± 0.002
IR (%) ([5]; 50 μg/ml): 80.2%
OD(A570 nm) ([5]; 50 μg/ml): 0.091 ± 0.002
IR (%) ([5]; 100 μg/ml): 78.7%
OD(A570 nm) ([5]; 100 μg/ml): 0.098 ± 0.014
IC50 ([6]; Homo sapiens, U-251, Bliss method, unit not printed (concentrations in μg/ml), read-out: IC50 (95% confidence level)): 11.7 µg/mL (≈ 26 µM)
IR (%) ([6]; 3.125 μg/ml): 9.2%
OD(A570 nm) ([6]; 3.125 μg/ml): 0.796 ± 0.055
IR (%) ([6]; 6.25 μg/ml): 20.6%
OD(A570 nm) ([6]; 6.25 μg/ml): 0.696 ± 0.054
IR (%) ([6]; 12.5 μg/ml): 59.6%
OD(A570 nm) ([6]; 12.5 μg/ml): 0.354 ± 0.021
IR (%) ([6]; 25 μg/ml): 90.3%
OD(A570 nm) ([6]; 25 μg/ml): 0.085 ± 0.012
IR (%) ([6]; 50 μg/ml): 90.1%
OD(A570 nm) ([6]; 50 μg/ml): 0.087 ± 0.012
IR (%) ([6]; 100 μg/ml): 89.7%
OD(A570 nm) ([6]; 100 μg/ml): 0.090 ± 0.014
